What was measured:
HepG 2.2.15 cells = assay: Cytotoxicity, modified MTT method; assay type: cell-based; conditions: 50 % cytotoxicity concentration in HepG 2.2.15 cells; means of two independent experiments
Method: (§1) Based on our previous description, inhibitory activity on HBV (HBsAg, HBeAg and HBV DNA) was evaluated. […] Cytotoxicity was assayed with a modified 3-(4,5-dimethylthiazole-2-yl)-2,5-diphenyltetrazolium bromide (MTT) method (Gibco Invitrogen, Carlsbad, CA, USA). The anti-HBV antigen secretion activities were determined by the enzyme linked immunosorbent assay (ELISA; Autobio Diagnostics Co., Ltd, China). A real-time PCR assay was applied to detect the inhibitory activity on HBV DNA replication.

HBsAg secretion = assay: microbe, parasite or virus in culture; assay type: cell-based, Hepatitis B virus; conditions: for IC50: HepG 2.2.15 cells, means of two independent experiments, read-out: HBsAg IC50; for growth of inhibition on HBsAg secretion: relative to inactive compound 8
Method: as §1

HBeAg secretion = assay: microbe, parasite or virus in culture; assay type: cell-based, Hepatitis B virus; conditions: HepG 2.2.15 cells; means of two independent experiments; read-out: HBeAg IC50
Method: as §1

HBV DNA replication = assay: Inhibition of HBV DNA replication, real-time PCR, HepG 2.2.15 cells; assay type: cell-based, Hepatitis B virus; conditions: for IC50: HepG 2.2.15 cells, means of two independent experiments; for growth of inhibition on HBV DNA replication: relative to inactive compound 8
Method: as §1

[1] = test system: liver injury induced by D-galactosamine and lipopolysaccharide; design: method as in PMID 12880307; conditions: liver injury induced by D-galactosamine and lipopolysaccharide in mice; cited from earlier work

SMILES	CC50 (HepG 2.2.15 cells)	IC50 (HBsAg secretion)	IC50 (HBeAg secretion)	IC50 (HBV DNA replication)	growth of inhibition on HBsAg secretion (HBsAg secretion)	growth of inhibition on HBV DNA replication (HBV DNA replication)	hepatoprotective activity [1]
CC(=O)OC1CCC2(C)C(CCC3(C)C2CC(O)C2C(C4(C)CCCC(C)(C)O4)CCC23C)C1(C)C (centres unmarked) [Compound 1, 3-O-Acetly-panaxadiol]	> 2060 µM	–	–	–	–	–	–
CC1(C)CCCC(C)(C2CCC3(C)C2C(O)CC2C4(C)CCC(OC(=O)C5CCCC5)C(C)(C)C4CCC23C)O1 (centres unmarked) [Compound 2, 3-O-Cyclopentanecarbonyl panaxadiol]	> 2140 µM	1250 µM	> 2140 µM	515 µM	–	–	–
CC1(C)CCCC(C)(C2CCC3(C)C2C(O)CC2C4(C)CCC(OC(=O)c5ccco5)C(C)(C)C4CCC23C)O1 (centres unmarked) [Compound 3, 3-O-(2′-Furoyl) panaxadiol]	1180 µM	834 µM	1180 µM	50.3 µM	–	–	–
CC1(C)CCCC(C)(C2CCC3(C)C2C(O)CC2C4(C)CCC(OC(=O)c5cccs5)C(C)(C)C4CCC23C)O1 (centres unmarked) [Compound 4, 3-O-(2′-Thenoyl) panaxadiol]	> 1910 µM	30.8 µM	18.2 µM	16.5 µM	–	–	–
Cc1ccsc1C(=O)OC1CCC2(C)C(CCC3(C)C2CC(O)C2C(C4(C)CCCC(C)(C)O4)CCC23C)C1(C)C (centres unmarked) [Compound 5, 3-O-(3′-Methyl)-thenoyl panaxadiol]	> 2020 µM	> 2020 µM	> 2020 µM	> 505 µM	–	–	–
CC1(C)CCC[C@](C)([C@H]2CC[C@]3(C)[C@@H]2[C@H](O)C[C@@H]2[C@@]4(C)CC[C@H](OC(=O)c5sccc5Cl)C(C)(C)[C@@H]4CC[C@]23C)O1 [Compound 6, 3-O-(3′-Chloro)-thenoyl panaxadiol]	> 1640 µM	–	280 µM	43.2 µM	–	–	–
CC1(C)CCCC(C)(C2CCC3(C)C2C(O)CC2C4(C)CCC(OC(=O)c5cc6ccccc6s5)C(C)(C)C4CCC23C)O1 (centres unmarked) [Compound 7, 3-O-Benzothiophene-2-carboxyl panaxadiol]	> 1690 µM	–	–	–	–	–	–
CC1(C)CCC[C@](C)([C@H]2CC[C@]3(C)[C@@H]2[C@H](O)C[C@@H]2[C@@]4(C)CC[C@H](OC(=O)c5ccccc5)C(C)(C)[C@@H]4CC[C@]23C)O1 [Compound 8, 3-O-Benzoyl panaxadiol]	> 2000 µM	> 2000 µM	> 2000 µM	501 µM	–	–	–
CC1(C)CCCC(C)(C2CCC3(C)C2C(O)CC2C4(C)CCC(OC(=O)c5ccccc5O)C(C)(C)C4CCC23C)O1 (centres unmarked) [Compound 9, 3-O-Salicyloyl panaxadiol]	44.4 µM	43.3 µM	–	9.02 µM	60 folds	60 folds	–
CC1(C)CCC[C@](C)([C@H]2CC[C@]3(C)[C@@H]2[C@H](O)C[C@@H]2[C@@]4(C)CC[C@H](OC(=O)c5cc(O)c(O)c(O)c5)C(C)(C)[C@@H]4CC[C@]23C)O1 [Compound 10, 3-O-Galloyl panaxadiol]	25.9 µM	45.6 µM	> 1440 µM	7.27 µM	60 folds	60 folds	–
CC1(C)CCCC(C)(C2CCC3(C)C2C(O)CC2C4(C)CCC(OC(=O)c5cccnc5)C(C)(C)C4CCC23C)O1 (centres unmarked) [Compound 11, 3-O-Nicotinoyl panaxadiol]	1150 µM	1150 µM	1150 µM	117 µM	–	–	–
CCCCC(=O)O[C@H]1CC[C@]2(C)[C@H]3C[C@@H](O)[C@@H]4[C@@H]([C@@]5(C)CCCC(C)(C)O5)CC[C@@]4(C)[C@]3(C)CC[C@H]2C1(C)C [Compound 12, 3-O-Valeryl panaxadiol]	> 1580 µM	–	–	> 1580 µM	–	–	–
CCOCC(=O)O[C@H]1CC[C@]2(C)[C@H]3C[C@@H](O)[C@@H]4[C@@H]([C@@]5(C)CCCC(C)(C)O5)CC[C@@]4(C)[C@]3(C)CC[C@H]2C1(C)C [Compound 13, 3-O-2′-Ethyoxyl-acetyl panaxadiol]	1490 µM	589 µM	> 2360 µM	> 591 µM	–	–	–
CC1(C)CCCC(C)(C2CCC3(C)C2C(O)CC2C4(C)CCC(OC(=O)CCC(=O)O)C(C)(C)C4CCC23C)O1 (centres unmarked) [Compound 14, 3-O-Succinyl panaxadiol]	179 µM	199 µM	169 µM	16.7 µM	–	–	–
CC1(C)CCCC(C)(C2CCC3(C)C2C(O)CC2C4(C)CCC(OC(=O)CCCC(=O)O)C(C)(C)C4CCC23C)O1 (centres unmarked) [Compound 15, 3-O-Glutaryl panaxadiol]	86.6 µM	53.8 µM	101 µM	28.2 µM	–	–	–
CC1(C)CCCC(C)(C2CCC3(C)C2C(O)CC2C4(C)CCC(OC(=O)COCC(=O)O)C(C)(C)C4CCC23C)O1 (centres unmarked) [Compound 16, 3-O-Diglycolyl panaxadiol]	> 1700 µM	> 1700 µM	901 µM	51.9 µM	–	–	–

SMILES	CC50 (HepG 2.2.15 cells)	IC50 (HBsAg secretion)	IC50 (HBeAg secretion)	IC50 (HBV DNA replication)	growth of inhibition on HBsAg secretion (HBsAg secretion)	growth of inhibition on HBV DNA replication (HBV DNA replication)	hepatoprotective activity [1]
CC(CC(=O)O)CC(=O)O[C@H]1CC[C@]2(C)[C@H]3C[C@@H](O)[C@@H]4[C@@H]([C@@]5(C)CCCC(C)(C)O5)CC[C@@]4(C)[C@]3(C)CC[C@H]2C1(C)C (some centres unmarked) [Compound 17, 3-O-(3′-Methyl) diglutaryl panaxadiol]	934 µM	–	–	86.3 µM	–	–	–
CC(C)(CC(=O)O)CC(=O)O[C@H]1CC[C@]2(C)[C@H]3C[C@@H](O)[C@@H]4[C@@H]([C@@]5(C)CCCC(C)(C)O5)CC[C@@]4(C)[C@]3(C)CC[C@H]2C1(C)C [Compound 18, 3-O-(3′,3′-Dimethyl) glutaryl panaxadiol]	314 µM	933 µM	–	124 µM	–	–	–
CC1(C)CCCC(C)(C2CCC3(C)C2C(O)CC2C4(C)CCC(OC(=O)CC5(CC(=O)O)CCCC5)C(C)(C)C4CCC23C)O1 (centres unmarked) [Compound 19, 3-O-(3′,3′-tetramethylene)diglutaryl panaxadiol]	> 1730 µM	> 1730 µM	> 1730 µM	> 432 µM	–	–	–
CC(=O)OC1CC2(C)C(CC(O)C3C(C4(C)CCCC(C)(C)O4)CCC32C)C2(C)CCC(OC(C)=O)C(C)(C)C12 (centres unmarked) [Compound 20, 3,6-O-Diacetyl-panaxatriol]	> 2100 µM	> 2100 µM	> 2100 µM	545 µM	–	–	–
CC1(C)CCCC(C)(C2CCC3(C)C2C(O)CC2C4(C)CCC(OC(=O)CCC(=O)O)C(C)(C)C4C(OC(=O)CCC(=O)O)CC23C)O1 (centres unmarked) [Compound 21, 3,6-O-Disuccinyl panaxatriol]	> 1940 µM	> 1940 µM	> 1940 µM	> 485 µM	–	–	–
CC1(C)CCCC(C)(C2CCC3(C)C2C(O)CC2C4(C)CCC(OC(=O)c5ccco5)C(C)(C)C4C(OC(=O)c4ccco4)CC23C)O1 (centres unmarked) [Compound 22, 3,6-O-Di(2′-furoyl)-panaxatriol]	530 µM	> 1280 µM	> 1280 µM	> 320 µM	–	–	–
CC1(C)CCCC(C)(C2CCC3(C)C2C(O)CC2C4(C)CCC(OC(=O)c5cccs5)C(C)(C)C4C(OC(=O)c4cccs4)CC23C)O1 (centres unmarked) [Compound 23, 3,6-O-Di(2′-thenoyl)-panaxatriol]	> 2090 µM	–	–	> 2090 µM	–	–	–
CC1(C)CCCC(C)(C2CCC3(C)C2C(O)CC2C4(C)CCC(OC(=O)c5cccnc5)C(C)(C)C4C(OC(=O)c4cccnc4)CC23C)O1 (centres unmarked) [Compound 24, 3,6-O-Dinicotinoyl-panaxatriol]	1650 µM	1650 µM	1070 µM	412 µM	–	–	–
COCC(=O)OC1CC2(C)C(CC(O)C3C(C4(C)CCCC(C)(C)O4)CCC32C)C2(C)CCC(OC(=O)COC)C(C)(C)C12 (centres unmarked) [Compound 25, 3,6-O-Di(2′-methoxyl)acetoxyl-panaxatriol]	> 1500 µM	> 1500 µM	974 µM	> 375 µM	–	–	–
CC(=O)OC1CCC2(C)C(CCC3(C)C2CC(=O)C2C(C4(C)CCCC(C)(C)O4)CCC23C)C1(C)C [Compound 26, (20R)-20,25-Epoxy-3-O-acetoyl-dammaran-12-dione]	> 2280 µM	–	–	–	–	–	–
CC1(C)CCCC(C)(C2CCC3(C)C2C(=O)CC2C4(C)CCC(OC(=O)c5cccs5)C(C)(C)C4CCC23C)O1 [Compound 27, (20R)-20,25-Epoxy-3-O-(2′-thenoyl)-dammaran-12-dione]	> 2160 µM	–	–	–	–	–	–
CC1(C)CCCC(C)(C2CCC3(C)C2C(=O)CC2C4(C)CCC(OC(=O)CCC(=O)O)C(C)(C)C4CCC23C)O1 [Compound 28, (20R)-20,25-Epoxy-3-O-succinyl-dammaran-12-dione]	> 1940 µM	> 1940 µM	> 1940 µM	> 485 µM	–	–	–
CC(C)=CCC[C@](C)(O[C@@H]1O[C@H](CO[C@@H]2OC[C@@H](O)[C@H](O)[C@H]2O)[C@@H](O)[C@H](O)[C@H]1O)[C@H]1CC[C@]2(C)[C@@H]1[C@H](O)C[C@@H]1[C@@]3(C)CC[C@H](O[C@@H]4O[C@H](CO)[C@@H](O)[C@H](O)[C@H]4O[C@@H]4O[C@H](CO)[C@@H](O)[C@H](O)[C@H]4O)C(C)(C)[C@@H]3CC[C@]12C [Rb3, ginsenoside Rb3]	–	–	–	–	–	–	showed hepatoprotective activity
CC(C)=CCC[C@](C)(O[C@@H]1O[C@H](CO[C@@H]2O[C@@H](CO)[C@H](O)[C@H]2O)[C@@H](O)[C@H](O)[C@H]1O)[C@H]1CC[C@]2(C)[C@@H]1[C@H](O)C[C@@H]1[C@@]3(C)CC[C@H](O[C@@H]4O[C@H](CO)[C@@H](O)[C@H](O)[C@H]4O[C@@H]4O[C@H](CO)[C@@H](O)[C@H](O)[C@H]4O)C(C)(C)[C@@H]3CC[C@]12C [Rc, ginsenoside Rc]	–	–	–	–	–	–	showed hepatoprotective activity
O=C(O)c1cccs1 [TA, thiophenezoic acid, reference compound]	–	–	–	1770 µM	–	–	–

Source: article PMC4050313, “Panaxadiol and Panaxatriol Derivatives as Anti-Hepatitis B Virus Inhibitors” (Natural Products and Bioprospecting, 2014)
